According to publication PMC5218480 (PLoS ONE, 2017):

Test system: MV-4-11 cells
Experiment: Gene expression microarray analysis (Affymetrix PrimeView) and GSEA
Type: cell-based, human
Design: RFU PODN (11730768_x_at) / Fold change /veh PODN (11730768_x_at) / RFU LINC00158 (11744669_a_at) / Fold change /veh LINC00158 (11744669_a_at) / RFU DUSP10 (11751237_a_at) / Fold change /veh DUSP10 (11751237_a_at) / RFU ID3 (11757404_x_at) / Fold change /veh ID3 (11757404_x_at) / RFU PLEKHG5 (11737974_s_at) / Fold change /veh PLEKHG5 (11737974_s_at) / RFU LRRC4B (11730491_at) / Fold change /veh LRRC4B (11730491_at) / RFU GIMAP4 (11747438_a_at) / Fold change /veh GIMAP4 (11747438_a_at) / RFU KRT8 (11758183_x_at) / Fold change /veh KRT8 (11758183_x_at) / RFU CNN1 (11734310_a_at) / Fold change /veh CNN1 (11734310_a_at) / RFU VPS37D (11726825_at) / Fold change /veh VPS37D (11726825_at) / RFU C10orf10 (11716522_x_at) / Fold change /veh C10orf10 (11716522_x_at) / RFU KIR2DL2 /// KIR2DL4 /// KIR2DL5A /// KIR2DL5B /// KIR2DS1 /// KIR2DS2 /// KIR2DS3 /// KIR2DS4 /// KIR3DL3 /// KIR3DL3 /// KIR3DS1 (11738374_at) / Fold change /veh KIR2DL2 /// KIR2DL4 /// KIR2DL5A /// KIR2DL5B /// KIR2DS1 /// KIR2DS2 /// KIR2DS3 /// KIR2DS4 /// KIR3DL3 /// KIR3DL3 /// KIR3DS1 (11738374_at) / RFU C1QL1 (11718748_at) / Fold change /veh C1QL1 (11718748_at) / RFU TMPRSS4 (11747572_a_at) / Fold change /veh TMPRSS4 (11747572_a_at) / RFU HAMP (11756126_x_at) / Fold change /veh HAMP (11756126_x_at) / RFU RNFT2 (11725882_a_at) / Fold change /veh RNFT2 (11725882_a_at) / RFU NR4A2 (11747474_a_at) / Fold change /veh NR4A2 (11747474_a_at) / RFU ABCC12 (11746883_a_at) / Fold change /veh ABCC12 (11746883_a_at) / RFU TMEM136 (11760407_x_at) / Fold change /veh TMEM136 (11760407_x_at) / RFU CLDN22 /// WWC2 (11732394_at) / Fold change /veh CLDN22 /// WWC2 (11732394_at) / RFU HLA-DPB1 (11760878_x_at) / Fold change /veh HLA-DPB1 (11760878_x_at) / RFU SPINT1 (11716480_a_at) / Fold change /veh SPINT1 (11716480_a_at) / RFU GAP43 (11754022_s_at) / Fold change /veh GAP43 (11754022_s_at) / RFU A4GNT (11735810_at) / Fold change /veh A4GNT (11735810_at) / RFU PRB3 (11715151_x_at) / Fold change /veh PRB3 (11715151_x_at) / RFU TUBB4B (11761932_at) / Fold change /veh TUBB4B (11761932_at) / RFU CAPN14 (11732068_a_at) / Fold change /veh CAPN14 (11732068_a_at) / RFU TMCC2 (11721928_a_at) / Fold change /veh TMCC2 (11721928_a_at) / RFU IRGQ (11745062_a_at) / Fold change /veh IRGQ (11745062_a_at) / RFU FAM174B (11720279_a_at) / Fold change /veh FAM174B (11720279_a_at) / RFU TMPRSS4 (11748680_a_at) / Fold change /veh TMPRSS4 (11748680_a_at) / RFU FAM212B (11763350_a_at) / Fold change /veh FAM212B (11763350_a_at) / RFU PLEKHG5 (11743358_a_at) / Fold change /veh PLEKHG5 (11743358_a_at) / RFU ZSCAN30 (11745921_a_at) / Fold change /veh ZSCAN30 (11745921_a_at) / RFU CMKLR1 (11741424_a_at) / Fold change /veh CMKLR1 (11741424_a_at) / RFU LOC101060620 /// MAPK8IP1 (11723275_at) / Fold change /veh LOC101060620 /// MAPK8IP1 (11723275_at) / RFU SPTSSB (11747773_x_at) / Fold change /veh SPTSSB (11747773_x_at) / RFU PRSS12 (11739890_at) / Fold change /veh PRSS12 (11739890_at) / RFU BIN1 (11741810_x_at) / Fold change /veh BIN1 (11741810_x_at) / RFU WNT11 (11732464_a_at) / Fold change /veh WNT11 (11732464_a_at) / RFU C10orf10 (11716521_a_at) / Fold change /veh C10orf10 (11716521_a_at) / RFU C5orf56 (11738089_at) / Fold change /veh C5orf56 (11738089_at) / RFU CYB561 (11721691_x_at) / Fold change /veh CYB561 (11721691_x_at) / RFU ANKRD19P (11752326_a_at) / Fold change /veh ANKRD19P (11752326_a_at) / RFU OR2T12 /// OR2T33 /// OR2T8 (11738714_s_at) / Fold change /veh OR2T12 /// OR2T33 /// OR2T8 (11738714_s_at) / RFU VCAN (11748164_a_at) / Fold change /veh VCAN (11748164_a_at) / RFU JSRP1 (11732532_at) / Fold change /veh JSRP1 (11732532_at) / RFU KRTAP10-11 (11738290_x_at) / Fold change /veh KRTAP10-11 (11738290_x_at) / RFU MYO3A (11730013_a_at) / Fold change /veh MYO3A (11730013_a_at) / RFU EBF3 (11725865_a_at) / Fold change /veh EBF3 (11725865_a_at) / RFU CAMK2N1 (11719241_x_at) / Fold change /veh CAMK2N1 (11719241_x_at) / RFU C5orf56 (11738088_a_at) / Fold change /veh C5orf56 (11738088_a_at) / RFU OLFML3 (11715873_a_at) / Fold change /veh OLFML3 (11715873_a_at) / RFU LOC100653217 /// NTM (11731650_a_at) / Fold change /veh LOC100653217 /// NTM (11731650_a_at) / RFU MAPK11 (11762145_a_at) / Fold change /veh MAPK11 (11762145_a_at) / RFU FIZ1 (11724087_x_at) / Fold change /veh FIZ1 (11724087_x_at) / RFU OASL (11726364_x_at) / Fold change /veh OASL (11726364_x_at) / RFU SOX15 (11748057_x_at) / Fold change /veh SOX15 (11748057_x_at) / RFU CD79A (11719716_a_at) / Fold change /veh CD79A (11719716_a_at) / RFU HIST1H1D (11736915_at) / Fold change /veh HIST1H1D (11736915_at) / RFU CASKIN2 (11723855_a_at) / Fold change /veh CASKIN2 (11723855_a_at) / RFU LOC730098 (11760151_x_at) / Fold change /veh LOC730098 (11760151_x_at) / RFU OR4N2 (11742367_at) / Fold change /veh OR4N2 (11742367_at) / RFU PRRT2 (11749266_a_at) / Fold change /veh PRRT2 (11749266_a_at) / RFU SNX32 (11753110_a_at) / Fold change /veh SNX32 (11753110_a_at) / RFU CDHR5 (11726645_a_at) / Fold change /veh CDHR5 (11726645_a_at) / RFU RCAN1 (11760418_a_at) / Fold change /veh RCAN1 (11760418_a_at) / RFU FAM167A (11723789_a_at) / Fold change /veh FAM167A (11723789_a_at) / RFU FAM26E (11764081_at) / Fold change /veh FAM26E (11764081_at) / RFU ISYNA1 (11749810_s_at) / Fold change /veh ISYNA1 (11749810_s_at) / RFU ACY1 (11761880_at) / Fold change /veh ACY1 (11761880_at) / RFU 11764098_at / Fold change /veh 11764098_at / RFU SAMD14 (11745864_x_at) / Fold change /veh SAMD14 (11745864_x_at) / RFU NPB (11741838_a_at) / Fold change /veh NPB (11741838_a_at) / RFU TMPRSS6 (11731388_a_at) / Fold change /veh TMPRSS6 (11731388_a_at) / RFU KRTAP10-2 (11738614_at) / Fold change /veh KRTAP10-2 (11738614_at) / RFU ARHGAP8 /// PRR5-ARHGAP8 (11727945_x_at) / Fold change /veh ARHGAP8 /// PRR5-ARHGAP8 (11727945_x_at) / RFU KRTAP5-7 /// NADSYN1 (11734609_at) / Fold change /veh KRTAP5-7 /// NADSYN1 (11734609_at) / RFU RASL12 (11751679_a_at) / Fold change /veh RASL12 (11751679_a_at) / RFU CDKN2B (11736163_a_at) / Fold change /veh CDKN2B (11736163_a_at) / RFU PRF1 (11729649_at) / Fold change /veh PRF1 (11729649_at) / RFU, ZNF638 /// ZNF638-IT1 / Fold change vs veh, ZNF638 /// ZNF638-IT1 / RFU, PANK3 / Fold change vs veh, PANK3 / RFU, SH3YL1 / Fold change vs veh, SH3YL1 / RFU, ZEB2 / Fold change vs veh, ZEB2 / RFU, NRIP1 / Fold change vs veh, NRIP1 / RFU, PTTG1IP / Fold change vs veh, PTTG1IP / RFU, CAPN2 / Fold change vs veh, CAPN2 / RFU, MED14 / Fold change vs veh, MED14 / RFU, SNORA58 / Fold change vs veh, SNORA58 / RFU, C1orf63 / Fold change vs veh, C1orf63 / RFU, LRRFIP1 / Fold change vs veh, LRRFIP1 / RFU, NDUFAF7 / Fold change vs veh, NDUFAF7 / RFU, SLC12A2 / Fold change vs veh, SLC12A2 / RFU, IBTK / Fold change vs veh, IBTK / RFU, ESF1 / Fold change vs veh, ESF1 / Fold change vs veh, TMEM50B / RFU, TAOK1 / Fold change vs veh, TAOK1 / RFU, ACBD3 / Fold change vs veh, ACBD3 / RFU, TMA16 / Fold change vs veh, TMA16 / RFU, RWDD3 / Fold change vs veh, RWDD3 / RFU, BCAT1 / Fold change vs veh, BCAT1 / RFU, EDEM3 / Fold change vs veh, EDEM3 / RFU, TMEM33 / Fold change vs veh, TMEM33 / RFU, WDR75 / Fold change vs veh, WDR75 / RFU, AHCTF1 / Fold change vs veh, AHCTF1 / RFU, TFRC / Fold change vs veh, TFRC / RFU, ZDHHC17 / Fold change vs veh, ZDHHC17 / RFU, NOM1 / Fold change vs veh, NOM1 / RFU, ARL8B / Fold change vs veh, ARL8B / RFU, ZBTB11 / Fold change vs veh, ZBTB11 / RFU, TAMM41 / Fold change vs veh, TAMM41 / RFU, KIAA1704 /// LOC100996395 / Fold change vs veh, KIAA1704 /// LOC100996395 / RFU, ING1 / Fold change vs veh, ING1 / RFU, TRMT61B / Fold change vs veh, TRMT61B / RFU, FUBP3 / Fold change vs veh, FUBP3 / RFU, TP53 / Fold change vs veh, TP53 / RFU, TNKS2 / Fold change vs veh, TNKS2 / RFU, ZFP14 / Fold change vs veh, ZFP14 / RFU, ACTR2 / Fold change vs veh, ACTR2 / RFU, PPP3R1 / Fold change vs veh, PPP3R1 / RFU, PIK3R1 / Fold change vs veh, PIK3R1 / RFU, HNRNPA1 / Fold change vs veh, HNRNPA1 / RFU, RNF170 / Fold change vs veh, RNF170 / RFU, ZNF28 / Fold change vs veh, ZNF28 / RFU, RNGTT / Fold change vs veh, RNGTT / RFU, OGT / Fold change vs veh, OGT / RFU, BRD1 / Fold change vs veh, BRD1 / RFU, MARS / Fold change vs veh, MARS / RFU, ZNF655 / Fold change vs veh, ZNF655 / RFU, FAHD1 / Fold change vs veh, FAHD1 / RFU, BDP1 / Fold change vs veh, BDP1 / RFU, LRRCC1 / Fold change vs veh, LRRCC1 / RFU, ARID1A / Fold change vs veh, ARID1A / RFU, ZNF146 / Fold change vs veh, ZNF146 / RFU, ZNF330 / Fold change vs veh, ZNF330 / RFU, GPN3 / Fold change vs veh, GPN3 / RFU, C9orf123 / Fold change vs veh, C9orf123 / RFU, N4BP2L2 / Fold change vs veh, N4BP2L2 / RFU, ARFIP1 / Fold change vs veh, ARFIP1 / RFU, FAM179B / Fold change vs veh, FAM179B / RFU, BCL10 / Fold change vs veh, BCL10 / RFU, UHRF1BP1L / Fold change vs veh, UHRF1BP1L / RFU, BET1 / Fold change vs veh, BET1 / RFU, CNOT2 / Fold change vs veh, CNOT2 / RFU, ZNF268 / Fold change vs veh, ZNF268 / Fold change vs veh, ZNF507 / RFU, DGCR2 / Fold change vs veh, DGCR2 / RFU, WDSUB1 / Fold change vs veh, WDSUB1 / Fold change vs veh, HSP90B1 /// MIR3652 / RFU, ADSS / Fold change vs veh, ADSS / RFU, GK / Fold change vs veh, GK / RFU, ZNF148 / Fold change vs veh, ZNF148 / RFU, TAF9 / Fold change vs veh, TAF9 / RFU, SLC1A5 / Fold change vs veh, SLC1A5 / RFU, SLMO2 / Fold change vs veh, SLMO2 / RFU, ABCC4 / Fold change vs veh, ABCC4 / RFU, LOC101060439 /// RAP1B / Fold change vs veh, LOC101060439 /// RAP1B / RFU, RFX7 / Fold change vs veh, RFX7 / RFU, GTPBP10 / Fold change vs veh, GTPBP10 / RFU, CNEP1R1 / Fold change vs veh, CNEP1R1 / RFU, BIVM-ERCC5 /// ERCC5 / Fold change vs veh, BIVM-ERCC5 /// ERCC5 / RFU, ILF3 / Fold change vs veh, ILF3 / RFU 11762660_at / Fold change /veh 11762660_at / RFU VCAN (11757783_s_at) / Fold change /veh VCAN (11757783_s_at) / RFU DDX43 (11728927_at) / Fold change /veh DDX43 (11728927_at) / RFU KRT8 (11758188_x_at) / Fold change /veh KRT8 (11758188_x_at) / RFU NKD1 (11759106_at) / Fold change /veh NKD1 (11759106_at) / RFU SRD5A1 (11742802_a_at) / Fold change /veh SRD5A1 (11742802_a_at) / RFU TPSAB1 /// TPSB2 (11721975_s_at) / Fold change /veh TPSAB1 /// TPSB2 (11721975_s_at) / RFU GSTM3 (11746129_a_at) / Fold change /veh GSTM3 (11746129_a_at) / RFU IL23R (11737362_x_at) / Fold change /veh IL23R (11737362_x_at) / RFU TMEM51 (11727254_a_at) / Fold change /veh TMEM51 (11727254_a_at) / RFU PIWIL2 (11732686_x_at) / Fold change /veh PIWIL2 (11732686_x_at) / RFU ORM1 (11744905_x_at) / Fold change /veh ORM1 (11744905_x_at) / RFU CCDC152 (11743942_at) / Fold change /veh CCDC152 (11743942_at) / RFU ECM1 (11717891_a_at) / Fold change /veh ECM1 (11717891_a_at) / RFU IL23R (11748794_a_at) / Fold change /veh IL23R (11748794_a_at) / RFU TNFAIP8L3 (11732012_x_at) / Fold change /veh TNFAIP8L3 (11732012_x_at) / RFU MBOAT4 (11741988_at) / Fold change /veh MBOAT4 (11741988_at) / RFU 11764193_at / Fold change /veh 11764193_at / RFU TMEM53 (11763286_at) / Fold change /veh TMEM53 (11763286_at) / RFU MAGEB2 (11727129_at) / Fold change /veh MAGEB2 (11727129_at) / RFU TMEM200A (11744735_a_at) / Fold change /veh TMEM200A (11744735_a_at) / RFU CCDC152 (11751479_a_at) / Fold change /veh CCDC152 (11751479_a_at) / RFU FAM211A (11726209_a_at) / Fold change /veh FAM211A (11726209_a_at) / RFU RGS16 (11746705_a_at) / Fold change /veh RGS16 (11746705_a_at) / RFU VCAN (11755009_s_at) / Fold change /veh VCAN (11755009_s_at) / RFU RHOB (11743442_s_at) / Fold change /veh RHOB (11743442_s_at) / RFU RGS16 (11720943_a_at) / Fold change /veh RGS16 (11720943_a_at) / RFU RGS16 (11720944_at) / Fold change /veh RGS16 (11720944_at) / RFU, VPS4B / Fold change vs veh, VPS4B / RFU, CREB1 / Fold change vs veh, CREB1 / RFU, DNAJC13 / Fold change vs veh, DNAJC13 / RFU, GNAQ / Fold change vs veh, GNAQ / RFU, CDK5R1 / Fold change vs veh, CDK5R1 / RFU, ZRANB3 / Fold change vs veh, ZRANB3 / RFU, CUL4A / Fold change vs veh, CUL4A / RFU, CCNY / Fold change vs veh, CCNY / RFU, UFL1 / Fold change vs veh, UFL1 / RFU, COG3 / Fold change vs veh, COG3 / RFU, DIAPH2 / Fold change vs veh, DIAPH2 / RFU, SKA2 / Fold change vs veh, SKA2 / RFU, AFF3 / Fold change vs veh, AFF3 / RFU, LMF1 / Fold change vs veh, LMF1 / RFU, IPO11 / Fold change vs veh, IPO11 / RFU, DFFB / Fold change vs veh, DFFB / RFU, FOXP1 / Fold change vs veh, FOXP1 / RFU, CARD8 / Fold change vs veh, CARD8 / RFU, STRN3 / Fold change vs veh, STRN3 / RFU, ADK / Fold change vs veh, ADK / RFU, RASSF2 / Fold change vs veh, RASSF2 / RFU, WIPF1 / Fold change vs veh, WIPF1 / RFU, LARP1B / Fold change vs veh, LARP1B / RFU, RASA1 / Fold change vs veh, RASA1 / RFU, RB1 / Fold change vs veh, RB1 / RFU, PPFIA1 / Fold change vs veh, PPFIA1 / RFU, MAT2A / Fold change vs veh, MAT2A / RFU, CCT5 / Fold change vs veh, CCT5 / RFU, WDR92 / Fold change vs veh, WDR92 / RFU, CUX1 / Fold change vs veh, CUX1 / RFU, TTC7A / Fold change vs veh, TTC7A / RFU, TMEM135 / Fold change vs veh, TMEM135 / RFU, DEPTOR / Fold change vs veh, DEPTOR / RFU, CPM / Fold change vs veh, CPM / RFU, DNAJB6 / Fold change vs veh, DNAJB6 / RFU, CACNA2D3 / Fold change vs veh, CACNA2D3 / RFU, DTX4 / Fold change vs veh, DTX4 / RFU, TFCP2 / Fold change vs veh, TFCP2 / RFU, GMCL1 /// GMCL1P1 / Fold change vs veh, GMCL1 /// GMCL1P1 / RFU, AEBP2 / Fold change vs veh, AEBP2 / RFU, SNHG1 /// SNORD22 /// SNORD25 /// SNORD26 /// SNORD27 /// SNORD28 /// SNORD29 /// SNORD31 / Fold change vs veh, SNHG1 /// SNORD22 /// SNORD25 /// SNORD26 /// SNORD27 /// SNORD28 /// SNORD29 /// SNORD31 / Fold change (Aza/veh), C12orf56 (ProbeSet 11735607_a_at) / Fold change (ACY-1035/veh), C12orf56 (ProbeSet 11735607_a_at) / Fold change (Aza/veh), FGFR1OP (ProbeSet 11751329_s_at) / Fold change (ACY-1035/veh), FGFR1OP (ProbeSet 11751329_s_at) / Fold change (Aza/veh), VPS36 (ProbeSet 11739960_a_at) / Fold change (ACY-1035/veh), VPS36 (ProbeSet 11739960_a_at) / RFU SYPL1 (11715823_x_at) / Fold change /veh SYPL1 (11715823_x_at) / RFU IGFBP7 (11715501_s_at) / Fold change /veh IGFBP7 (11715501_s_at) / RFU REEP3 (11722064_at) / Fold change /veh REEP3 (11722064_at) / RFU IGLL1 (11728026_x_at) / Fold change /veh IGLL1 (11728026_x_at): dose or concentration left out as unconfirmed
Conditions: MV-4-11 cells, 48 hours

Nc1ccc(-c2cccs2)cc1NC(=O)c1ccc2c(c1)cc(C1CC1)n2CCN1CCOCC1 [ACY-1035]
RFU OASL (11726364_x_at): 41.33 RFU
